≈ marks a conversion by molar mass, not a printed value.
How the values were obtained:
Escherichia coli (981) = test: MIC in agar, Escherichia coli (981); format: cell-based; settings: Isosensitest agar, 10^4 CFU, 24 h, 37° C.
Description: (§1) The antibacterial activity (minimum inhibiting concentration, MIC) of the compounds according to the invention has been determined in agar, by adding the compound under evaluation at concentrations of from 0.1 to 100 meg/ml by means of a "multipoint inoculator" (Denley Techn. Ltd., England); the medium used was Isosensitest agar (Oxoid); the bacterial inoculate was 10^4 colony forming unity (CFU) per inoculation point. The reading of the results was done after 24 hour-incubation in thermostat at 37° C.
(§2) The MIC was defined as the lowest concentration of chemotherapeutic agent still capable of totally inhibiting the growth of bacteria, as detected from a lack of colony development in the inoculation point.
(§3) The microorganisms used for evaluating the activity of the specific compounds have been: Escherichia coli, Klebsiella P., Enterobacter, Serratia, Citrobacter, Proteus (+), Salmonella, Pseudomonas, Staphylococcus. All the compounds according to the present invention are provided with antibacterial activity against one or more microorganism(s) among those above mentioned. Some of such compounds are absorbed after having been administered orally to the animals, and are particularly useful as disinfectants of the urinary tract in that they are excreted in a high percentage (50-70% over 24 hours after the administration of 50 mg/kg per os) as such, and in metabolic active form, through the urine.
A = Escherichia coli (981)

Pseudomonas aeruginosa = test: MIC in agar, Pseudomonas aeruginosa; format: cell-based; settings: Isosensitest agar, 10^4 CFU, 24 h, 37° C., read-out: MIC, B = Pseudomonas aeruginosa
Description: as §1, §2, §3
B = P udomonas aeruginosa

Staphylococcus aureus = test: MIC in agar, Staphylococcus aureus; format: cell-based; settings: Isosensitest agar, 10^4 CFU, 24 h, 37° C.
Description: as §1, §2, §3

[1] = system: Proteus Morgani (indole +); test: MIC in agar, Proteus Morgani (indole +); format: cell-based; settings: Isosensitest agar, 10^4 CFU, 24 h, 37° C.; read-out: MIC, D = Proteus Morgani (indole +)
Description: as §1, §2, §3
D = Proteus Morgani (indole +)

Klebsiella pneumoniae = test: MIC in agar, Klebsiella pneumoniae; format: cell-based; settings: Isosensitest agar, 10^4 CFU, 24 h, 37° C., read-out: MIC, E = Klebsiella pneumoniae
Description: as §1, §2, §3
E = Klebsiella pneumoniae

Enterobacter = test: MIC in agar, Enterobacter; format: cell-based; settings: Isosensitest agar, 10^4 CFU, 24 h, 37° C., read-out: MIC, F = Enterobacter
Description: as §1, §2, §3

Citrobacter = test: MIC in agar, Citrobacter; format: cell-based; settings: Isosensitest agar, 10^4 CFU, 24 h, 37° C., read-out: MIC, G = Citrobacter
Description: as §1, §2, §3

bacteria [2] = test: antibacterial activity in vitro, overall; format: cell-based; settings: in vitro, Table 1
Description: as §1, §2, §3

[3] = plasma levels by HPLC after intraperitoneal and oral administration to rats; format: in vivo; settings: rat; for concentration at 0.5 h: 0.50 h; for concentration at 0.5 h / concentration at 1 h / concentration at 2 h / concentration at 4 h / concentration at 8 h / concentration at 15 h: read-out: Plasma level
Description: We give hereinafter in Table 2 the haematic levels of compound (h) as measured in plasma by HPLC. Each value is the average of three tested rats.
More precisely in FIG. 1 the plasma levels in rats versus the time, are reported, after i.p. administration of 10 mg/kg and 25 mg/kg of compound (h), while in FIG. 2 the plasma levels are reported of compound (h) in rats, versus the time, after oral administration of 25, 50 and 100 mg/kg of said compound.

[4] = tissue levels by HPLC after oral administration to rats; format: in vivo; settings: rat; for concentration at 0.5 h / concentration at 1 h / concentration at 2 h / concentration at 4 h / concentration at 8 h / concentration at 15 h: 50 mg/kg oral; for Cmax: po
in vivo = settings: rat, po
Description: In Table 4 the percentage of urinary excretion of compound (h) is reported, as measured in the 24 hours successive to oral administration of the same to rats.
Each value is the average of three tested rats.
The tests have been performed in comparison with Ofloxacin, a well known antibacterial compound. The amount of excreted product has been determined with microbiological analysis, by using Klebsiella Pneumoniae as the testing microorganism.

[5] = preliminary pharmacokinetic tests in dogs, oral; format: in vivo; settings: dog, 20 mg/kg per os
Excerpt: Preliminary tests performed in dogs with the compound (h) have given still better results than the tests performed in rats.

bacteria [6] = test: antibacterial characteristics tested in vivo
[7] = heart, read-out: Tissue level, heart
[8] = kidney, read-out: Tissue level, kidney
[9] = liver, read-out: Tissue level, liver
[10] = plasma, read-out: Tissue levels table, plasma

Q: Which MIC (Escherichia coli (981)) does the source give for CN1CCN(c2c(F)cc3c(=O)c(C(=O)O)cn4c3c2SCC4)CC1 [Compound (h), 9-Fluoro-10[N-(4'-methyl)-piperazinyl]-7-oxo-2,3-dihydro-7H-pyrido[1,2,3 de][1,4]benzothiazine-6-carboxylic acid] here?
A: 0.78 µg/mL (≈ 2.15 µM)

Q: And the MIC (Pseudomonas aeruginosa)?
A: > 50 µg/mL

Q: What about the MIC (Staphylococcus aureus) of the same compound?
A: 0.78 µg/mL (≈ 2.15 µM)

Q: What about the MIC [1] of the same compound?
A: 1.56 µg/mL (≈ 4.29 µM)

Q: And the MIC (Klebsiella pneumoniae)?
A: < 0.39 µg/mL

Q: And the MIC (Enterobacter)?
A: < 0.39 µg/mL

Q: What about the MIC (Citrobacter) of the same compound?
A: 1.56 µg/mL (≈ 4.29 µM)

Q: What about the “anti-bacterial activity in vitro” value (bacteria [2]) of the same compound?
A: very good and comparable anti-bacterial activity

Q: And the concentration at 0.5 h ([3]; plasma, ip, 10 mg/kg i.p.)?
A: 2700 ng/mL

Q: And the concentration at 1 h ([3]; plasma, ip, 10 mg/kg i.p.)?
A: 2530 ng/mL

Q: What about the concentration at 2 h ([3]; plasma, ip, 10 mg/kg i.p.) of the same compound?
A: 2170 ng/mL

Q: What about the concentration at 4 h ([3]; plasma, ip, 10 mg/kg i.p.) of the same compound?
A: 1830 ng/mL

Q: What about the concentration at 8 h ([3]; plasma, ip, 10 mg/kg i.p.) of the same compound?
A: 1630 ng/mL

Q: And the concentration at 0.5 h ([3]; plasma, ip, 25 mg/kg i.p.)?
A: 8350 ng/mL

Q: And the concentration at 1 h ([3]; plasma, ip, 25 mg/kg i.p.)?
A: 6290 ng/mL

Q: And the concentration at 2 h ([3]; plasma, ip, 25 mg/kg i.p.)?
A: 6440 ng/mL

Q: And the concentration at 4 h ([3]; plasma, ip, 25 mg/kg i.p.)?
A: 5010 ng/mL

Q: What about the concentration at 8 h ([3]; plasma, ip, 25 mg/kg i.p.) of the same compound?
A: 3720 ng/mL

Q: And the concentration at 0.5 h ([3]; plasma, po, 25 mg/kg os)?
A: 5330 ng/mL

Q: What about the concentration at 1 h ([3]; plasma, po, 25 mg/kg os) of the same compound?
A: 7300 ng/mL

Q: And the concentration at 2 h ([3]; plasma, po, 25 mg/kg os)?
A: 5670 ng/mL

Q: What about the concentration at 4 h ([3]; plasma, po, 25 mg/kg os) of the same compound?
A: 3600 ng/mL

Q: And the concentration at 8 h ([3]; plasma, po, 25 mg/kg os)?
A: 3270 ng/mL

Q: And the concentration at 15 h ([3]; plasma, po, 25 mg/kg os)?
A: 2730 ng/mL

Q: And the concentration at 0.5 h ([3]; plasma, po, 50 mg/kg os)?
A: 8750 ng/mL

Q: What about the concentration at 1 h ([3]; plasma, po, 50 mg/kg os) of the same compound?
A: 10100 ng/mL

Q: What about the concentration at 2 h ([3]; plasma, po, 50 mg/kg os) of the same compound?
A: 9950 ng/mL

Q: And the concentration at 4 h ([3]; plasma, po, 50 mg/kg os)?
A: 6370 ng/mL

Q: What about the concentration at 8 h ([3]; plasma, po, 50 mg/kg os) of the same compound?
A: 4950 ng/mL

Q: What about the concentration at 15 h ([3]; plasma, po, 50 mg/kg os) of the same compound?
A: 4290 ng/mL

Q: What about the concentration at 0.5 h ([3]; plasma, po, 100 mg/kg os) of the same compound?
A: 12500 ng/mL

Q: What about the concentration at 1 h ([3]; plasma, po, 100 mg/kg os) of the same compound?
A: 20600 ng/mL

Q: What about the concentration at 2 h ([3]; plasma, po, 100 mg/kg os) of the same compound?
A: 22200 ng/mL

Q: And the concentration at 4 h ([3]; plasma, po, 100 mg/kg os)?
A: 15900 ng/mL

Q: And the concentration at 8 h ([3]; plasma, po, 100 mg/kg os)?
A: 13000 ng/mL

Q: And the concentration at 15 h ([3]; plasma, po, 100 mg/kg os)?
A: 6220 ng/mL

Q: What about the half-life ([3]; plasma, deduced from Table 2, read-out: half-life time (converted)) of the same compound?
A: 10 h

Q: And the “absorption per os and i.p.” value [3]?
A: quickly absorbed

Q: And the “plasma levels induced” value [3]?
A: high and long-lasting levels both in the plasma and in the various organs

Q: And the concentration at 0.5 h [4, 7]?
A: 20000 ng/mL

Q: What about the concentration at 1 h [4, 7] of the same compound?
A: 31400 ng/mL

Q: And the concentration at 2 h [4, 7]?
A: 21000 ng/mL

Q: What about the concentration at 4 h [4, 7] of the same compound?
A: 18100 ng/mL

Q: And the concentration at 8 h [4, 7]?
A: 9930 ng/mL

Q: And the concentration at 15 h [4, 7]?
A: 5350 ng/mL

Q: What about the concentration at 0.5 h [4, 8] of the same compound?
A: 32600 ng/mL

Q: And the concentration at 1 h [4, 8]?
A: 61200 ng/mL

Q: What about the concentration at 2 h [4, 8] of the same compound?
A: 50600 ng/mL

Q: What about the concentration at 4 h [4, 8] of the same compound?
A: 42400 ng/mL

Q: And the concentration at 8 h [4, 8]?
A: 17800 ng/mL

Q: What about the concentration at 15 h [4, 8] of the same compound?
A: 7950 ng/mL

Q: And the concentration at 0.5 h [4, 9]?
A: 63500 ng/mL

Q: And the concentration at 1 h [4, 9]?
A: 80400 ng/mL

Q: And the concentration at 2 h [4, 9]?
A: 58100 ng/mL

Q: And the concentration at 4 h [4, 9]?
A: 34100 ng/mL

Q: What about the concentration at 8 h [4, 9] of the same compound?
A: 21600 ng/mL

Q: What about the concentration at 15 h [4, 9] of the same compound?
A: 11300 ng/mL

Q: What about the concentration at 0.5 h [4, 10] of the same compound?
A: 8750 ng/mL

Q: What about the concentration at 1 h [4, 10] of the same compound?
A: 10100 ng/mL

Q: And the concentration at 2 h [4, 10]?
A: 9950 ng/mL

Q: What about the concentration at 4 h [4, 10] of the same compound?
A: 6370 ng/mL

Q: And the concentration at 8 h [4, 10]?
A: 4950 ng/mL

Q: What about the concentration at 15 h [4, 10] of the same compound?
A: 4290 ng/mL

Q: What about the Cmax ([4]; heart, read-out: mean tissue level at the moment of peak, heart) of the same compound?
A: 31400 ng/mL

Q: What about the Cmax ([4]; liver, read-out: mean tissue level at the moment of peak, liver (first of two values printed for liver)) of the same compound?
A: 61200 ng/mL

Q: What about the Cmax ([4]; liver, read-out: mean tissue level at the moment of peak, liver (second of two values printed for liver)) of the same compound?
A: 80400 ng/mL

Q: What about the presence in brain ([4]; oral) of the same compound?
A: No presence

Q: What about the Kp ([4]; oral, various organs, read-out: ratio of organ concentration with respect to the concentration in plasma) of the same compound?
A: > 3

Q: What about the Cmax ([4]; plasma, read-out: mean level at the moment of peak, plasma) of the same compound?
A: 10100 ng/mL

Q: What about the dose excreted at 24 h (in vivo; 20 mg/kg) of the same compound?
A: 77.3 ± 6.81%

Q: And the dose excreted at 24 h (in vivo; 50 mg/kg)?
A: 73 ± 4.58%

Q: What about the “plasma levels compared with rats” value [5] of the same compound?
A: sharply higher plasma levels

Q: And the half-life ([5]; plasma, po)?
A: 24 h

Q: And the Cmax ([5]; plasma, po, read-out: peak plasma level)?
A: 8000 ng/mL

Q: And the “in vivo antibacterial characteristics” value (bacteria [6])?
A: systemic antibacterial compound having long-lasting activity

Source: patent US4684647A, “Anti-bacterial pyrido-benzothiazine derivative and pharmaceutical composition therefor” (priority 1984, dated 1987)
